The numbers were not newly measured in patent US20040266821A1, “Acylated piperidine derivatives as melanocortin-4 receptor agonists” (priority 2001, published 2004), which cites them from elsewhere.

Experiment in data set [1]: not given
The source holds these as a separate data set.

For data set [2] the following is noted: oral route.

On to `Cc1ccc(N(CC2=NCCN2)c2cccc(O)c2)cc1` [phentolamine], for which, under “after an oral dose”, the duration of effect was 2 h and the onset of action was 5 to 30 min. The “share of men/patients with adequate response” value (oral) is given as 35-40%.
Consider “Ac-Nle-c[Asp-His-DPhe-Arg-Trp-Lys]-NH2 [MT-II]”, for which, in data set [1] (in vivo), the duration of action entry was “approximately 2.5 hours” and the “time to onset of erection” value is 10 to 20 min. For the same molecule, the response rate in data set [1] (injected intramuscularly or subcutaneously) is on record as 75%. The “absorption into the systemic circulation” value in data set [2] is recorded as “not absorbed into the systemic circulation”.
